In PMC5040251, “The Structure of Treponema pallidum Tp0751 (Pallilysin) Reveals a Non-canonical Lipocalin Fold That Mediates Adhesion to Extracellular Matrix Components and Interactions with Host Cells” (PLoS Pathogens, 2016):
Ends that are not written are not given here.

Columns and labels:
collagen type IV = assay: Initial (single point) binding screen of Tp0751 peptide library to immobilized collagen type IV; settings: immobilized human collagen type IV; absorbance 600 nm, three wells, two independent experiments; Student's two-tailed t-test against non-binding peptides
Protocol: (§1) Fig 3 Tp0751 lipocalin derived peptides directly bind host proteins. (A) Thirteen overlapping Tp0751 synthetic 24-mer peptides were evaluated for binding to immobilized fibrinogen, fibronectin, collagen type I, and collagen type IV. Average absorbance readings (600 nm) from three wells are presented with bars indicating standard error and the results are representative of two independent experiments. […] Average absorbance readings (600 nm) from three wells are presented with bars indicating standard error and the results are representative of two independent experiments. […] The strand colored in cyan reflects the overlap of p10 and p11. Color coded sequences of peptides p4, p6, p10, p10scr1, and p10scr2 are shown. Arginine residues in the p10 peptides are indicated by underlining.
(§2) Plasminogen-depleted human fibrinogen (Calbiochem) was purchased from VWR International. Laminin isolated from Engelbreth-Holm-Swarm murine sarcoma basement membrane and fibronectin isolated from human plasma were purchased from Sigma-Aldrich Canada Ltd. (Oakville, ON). Human collagen types I and IV (Rockland Immunochemicals, Inc.) were purchased from VWR International.
(§3) To test for binding of synthetic Tp0751 peptides p1-p13, p1scr, p6scr, p10scr1, and p10scr2 to the host proteins fibrinogen, fibronectin, laminin, collagen type I, and collagen type IV, initial binding assays were performed as described previously. For dose-dependent binding assays, recombinant proteins were serially diluted 1:2 from either 10 μM to 0.156 μm (Tp0751_78A used for crystallization and Tp0751_78 WT) or 40 μm to 0.625 μm (peptides p4, p6, p10, p11, p10scr1, and p10scr2). Average absorbance readings (600 nm) from three wells are presented with bars indicating standard error and the results are representative of two independent experiments. Plates were read at 600 nm with a BioTek enzyme-linked immunosorbent assay plate reader (Fisher Scientific, Ottawa, ON). All statistical analyses were performed using the Student’s two-tailed t-test. Non-linear regression curves were fitted and apparent dissociation constants (K d) were calculated using GraphPad Prism data analysis software (San Diego, CA).

fibronectin = assay: Dose-dependent binding assay to immobilized fibronectin; settings: plate binding to immobilized human plasma fibronectin; peptides serially diluted 1:2 from 40 to 0.625; absorbance 600 nm, three wells, representative of two independent experiments; non-linear regression, GraphPad Prism; read-out: Apparent Kd (Fn)
Protocol: as §1, §2, §3

fibrinogen = target: T1, fibrinogen (Homo sapiens, UniProt P02671+P02675+P02679); assay: Initial (single point) binding screen of Tp0751 peptide library to immobilized fibrinogen; settings: absorbance 600 nm, three wells, two independent experiments, Student's two-tailed t-test against non-binding peptides
T1 construct: purchased Calbiochem, purchased from VWR International
T1 sequence (P02671 20-629 limits assumed): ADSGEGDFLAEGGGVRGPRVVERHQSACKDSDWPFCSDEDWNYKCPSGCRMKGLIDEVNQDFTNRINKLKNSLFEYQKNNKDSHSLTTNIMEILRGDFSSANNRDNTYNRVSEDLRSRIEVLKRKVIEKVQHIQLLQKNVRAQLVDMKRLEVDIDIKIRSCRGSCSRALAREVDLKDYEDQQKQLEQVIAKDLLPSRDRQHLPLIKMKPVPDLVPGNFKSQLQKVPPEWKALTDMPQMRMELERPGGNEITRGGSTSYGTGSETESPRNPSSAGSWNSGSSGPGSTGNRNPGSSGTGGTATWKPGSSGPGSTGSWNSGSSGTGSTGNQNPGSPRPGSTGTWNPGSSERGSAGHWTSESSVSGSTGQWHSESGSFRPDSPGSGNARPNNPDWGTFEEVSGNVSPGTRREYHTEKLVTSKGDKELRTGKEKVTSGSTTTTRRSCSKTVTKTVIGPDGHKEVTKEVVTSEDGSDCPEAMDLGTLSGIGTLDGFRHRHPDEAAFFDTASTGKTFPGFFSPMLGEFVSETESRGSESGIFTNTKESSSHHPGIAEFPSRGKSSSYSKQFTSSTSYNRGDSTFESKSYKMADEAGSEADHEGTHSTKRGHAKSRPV
T1 sequence (P02675 31-491): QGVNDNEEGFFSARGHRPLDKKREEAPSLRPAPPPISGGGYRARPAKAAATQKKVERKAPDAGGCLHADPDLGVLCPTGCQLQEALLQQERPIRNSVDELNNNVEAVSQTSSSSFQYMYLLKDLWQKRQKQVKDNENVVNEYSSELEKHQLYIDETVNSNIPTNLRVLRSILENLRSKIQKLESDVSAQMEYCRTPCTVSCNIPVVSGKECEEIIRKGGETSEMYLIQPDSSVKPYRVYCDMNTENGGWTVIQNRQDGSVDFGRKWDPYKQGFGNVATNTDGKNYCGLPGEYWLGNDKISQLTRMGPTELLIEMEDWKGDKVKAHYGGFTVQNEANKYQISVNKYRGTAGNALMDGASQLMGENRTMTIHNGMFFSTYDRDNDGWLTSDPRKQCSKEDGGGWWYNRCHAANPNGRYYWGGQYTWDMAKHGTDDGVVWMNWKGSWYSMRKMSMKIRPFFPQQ
T1 sequence (P02679 27-433 limits assumed): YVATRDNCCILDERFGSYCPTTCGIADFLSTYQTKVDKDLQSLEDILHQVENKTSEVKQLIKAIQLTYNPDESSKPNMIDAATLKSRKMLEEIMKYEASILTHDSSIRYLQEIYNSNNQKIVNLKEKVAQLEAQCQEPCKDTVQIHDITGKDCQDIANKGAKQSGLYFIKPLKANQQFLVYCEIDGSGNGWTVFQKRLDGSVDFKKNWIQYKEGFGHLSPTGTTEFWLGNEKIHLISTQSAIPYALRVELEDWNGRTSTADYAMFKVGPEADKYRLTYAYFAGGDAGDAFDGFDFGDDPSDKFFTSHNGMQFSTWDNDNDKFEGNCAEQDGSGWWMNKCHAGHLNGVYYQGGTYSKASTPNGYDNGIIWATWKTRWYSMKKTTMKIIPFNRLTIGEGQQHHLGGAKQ
Protocol: as §1, §2, §3

Sequence | Binding to collagen IV in initial binding screen (collagen type IV) | Kd (fibronectin) | Binding to fibrinogen in initial binding screen (fibrinogen)
HHHHHHGGAAQTHTQPPVQTAMRIALWNRA [p4] | statistically significant binding | 2.4 ± 0.1 µM | statistically significant binding
HHHHHHQGALQHLLAGLWIQTEISPNSGDI [p6] | statistically significant binding | 4.5 ± 0.9 µM | statistically significant binding
HHHHHHRKTVSFLTRNTAISSIRRRLEVTF [p10] | significant binding | 1.6 ± 0.2 µM | significant binding
HHHHHHSIRRRLEVTFESHEVIHVRAVEDV [p11] | statistically significant binding | 5.8 ± 0.3 µM | statistically significant binding
